Experimental data as given in US20250263405A1, “HISTONE DEACETYLASE 6 INHIBITOR COMPOUNDS AND USES THEREOF” (VALO HEALTH, INC., priority 2021, published 2025).
pIC50: −log10 of the molar value.

Target: HDAC6 (Homo sapiens (Human), UniProt Q9UBN7)
Experiment: HDAC6 TR-FRET displacement assay
Format: binding
Conditions: displacement of fluorescein labeled tracer from HDAC6; 2 nM HDAC6, 1 nM tracer, 0.5 nM Tb-anti-GST antibody; 30 min pre-incubation, 6 hours at 25° C.
Description: HDAC6 and Tb-anti-GST antibody were purchased from Signal Chem (cat #PC124) and Cisbio (cat #61GSTTAH), respectively. HEPES, pH 7.5 was purchased from Teknova (Cat #H1575). All other buffer components, NaCl (cat #S5150), KCl (cat #60121), Triton X-100 (cat #T9284), GSH (cat #G4251), BGG (cat #G5009), and BSA (cat #A2153) were purchased from SIGMA.
Displacement of fluorescein labeled tracer 2-(6-hydroxy-3-oxo-3H-xanthen-9-yl)-5-({[5-(4-{[7-(hydroxycarbamoyl)-2H,3H,4H,5H-thieno[2,3-f][1,4]oxazepine-4-carbonyl]amino}phenoxy)pentyl]carbamothioyl}amino)benzoic acid from HDAC6 was measured in vitro using a TR-FRET assay. The assays were performed in 1536-well plates in a total volume of 6 μL in assay buffer consisting of 50 mM HEPES pH 7.5, 50 mM NaCl, 50 mM KCl, 0.01% Triton X-100, 0.5 mM GSH, 0.03% BGG, 0.01% BSA.
For concentration response curves (IC50 determination), Compounds were serially diluted 3-fold from 2 mM highest concentration to generate a 10-point concentration gradient. To perform the assay, 30 nL of compound gradient solutions were transferred to the assay plate using the ECHO acoustic dispenser to achieve a final concentration range of 10 μM to 0.000508 uM in 6 μL reaction. 3 μL of HDAC6 in assay buffer were added to the assay plates and pre-incubate at room temp. for 30 mins. After pre-incubation, 3 μL of the tracer and TB-anti-GST antibody mix were added to the assay plates. The final concentrations of HDAC6, tracer, and TB-anti-GST antibody for each assay are 2 nM, 1 nM, and 0.5 nM, respectively. Binding reactions were equilibrated at 25° C. for an additional 6 hours, then read in endpoint mode on the BMG PheraStar (BMG labtech) equipped with a 337-520-490 optical module. The ratio of the 520/490 nm emission was calculated to determine the relative amounts of HDAC6 and tracer complex residue in each well.
The percent inhibition of HDAC6 (IC50) was calculated according to the following equation.
As set forth in Table 1, “A” indicates an HDAC6 IC50 value of less than 200 nM; “B” indicates an HDAC6 IC50 value of greater than or equal to 200 nM and less than 500 nM; and “C” indicates an HDAC6 IC50 value of greater than or equal to 500 nM and less than 5 μM.

Sequence of HDAC6 (Q9UBN7 whole entry): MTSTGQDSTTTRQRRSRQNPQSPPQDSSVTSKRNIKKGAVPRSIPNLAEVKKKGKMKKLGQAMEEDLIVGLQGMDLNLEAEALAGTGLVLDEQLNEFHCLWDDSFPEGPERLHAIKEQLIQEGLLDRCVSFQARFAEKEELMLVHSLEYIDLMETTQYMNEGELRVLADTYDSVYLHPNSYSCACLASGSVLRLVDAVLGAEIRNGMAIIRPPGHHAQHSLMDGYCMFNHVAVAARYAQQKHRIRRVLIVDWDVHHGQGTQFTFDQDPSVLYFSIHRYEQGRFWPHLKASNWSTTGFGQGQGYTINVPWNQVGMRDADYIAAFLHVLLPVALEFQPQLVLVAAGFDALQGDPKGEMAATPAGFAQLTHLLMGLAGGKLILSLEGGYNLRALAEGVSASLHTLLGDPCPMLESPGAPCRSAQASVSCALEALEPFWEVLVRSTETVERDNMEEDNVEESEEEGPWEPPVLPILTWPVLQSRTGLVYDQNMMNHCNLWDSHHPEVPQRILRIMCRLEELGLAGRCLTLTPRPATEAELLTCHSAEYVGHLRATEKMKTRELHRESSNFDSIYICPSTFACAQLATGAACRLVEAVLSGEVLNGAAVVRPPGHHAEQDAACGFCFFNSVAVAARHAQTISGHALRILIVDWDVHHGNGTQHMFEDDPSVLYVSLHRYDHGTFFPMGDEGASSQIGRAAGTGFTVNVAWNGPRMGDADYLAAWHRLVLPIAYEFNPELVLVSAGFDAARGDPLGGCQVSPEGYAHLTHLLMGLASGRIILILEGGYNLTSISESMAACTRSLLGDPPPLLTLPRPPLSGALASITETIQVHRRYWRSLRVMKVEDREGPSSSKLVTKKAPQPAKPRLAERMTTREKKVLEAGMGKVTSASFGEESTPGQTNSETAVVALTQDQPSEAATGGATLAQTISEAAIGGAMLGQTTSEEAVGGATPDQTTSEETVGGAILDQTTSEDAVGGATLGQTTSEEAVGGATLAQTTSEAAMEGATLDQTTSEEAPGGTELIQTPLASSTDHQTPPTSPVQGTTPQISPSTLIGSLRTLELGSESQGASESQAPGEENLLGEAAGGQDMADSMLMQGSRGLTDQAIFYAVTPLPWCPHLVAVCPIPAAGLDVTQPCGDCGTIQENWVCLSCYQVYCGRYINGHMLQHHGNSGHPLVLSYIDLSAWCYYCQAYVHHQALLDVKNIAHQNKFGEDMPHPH

Row | Structure (SMILES) | pIC50
1 | CC1(C(=O)N2Cc3ccc(-c4noc(C(F)(F)F)n4)cc3OC[C@@H]2c2ccccc2)CCCOC1 (single isomer, unassigned) [Compound 13] | > 6.70
2 | CC1(C(=O)N2Cc3ccc(-c4noc(C(F)(F)F)n4)cc3OC[C@@H]2c2ccccc2)CCCOC1 (single isomer, unassigned) [Compound 14] | 5.30 to 6.30
3 | C[C@H]1COc2cc(-c3noc(C(F)(F)F)n3)cc(F)c2CN1C(=O)C1(C)COC1 [Compound 1, (S)-(6-fluoro-3-methyl-8-(5-(trifluoromethyl)-1,2,4-oxadiazol-3-yl)-2,3-dihydrobenzo[f][1,4]oxazepin-4(5H)-yl)(3-methyloxetan-3-yl)methanone] | > 6.70
4 | CC1(C(=O)N2Cc3ccc(-c4nnc(C(F)F)o4)cc3OC[C@@H]2c2ccccc2)CCOCC1 [Compound 3, (S)-(8-(5-(difluoromethyl)-1,3,4-oxadiazol-2-yl)-3-phenyl-2,3-dihydrobenzo[f][1,4]oxazepin-4(5H)-yl)(4-methyltetrahydro-2H-pyran-4-yl)methanone] | > 6.70
5 | CC1(C(=O)N2Cc3ccc(-c4noc(C(F)(F)F)n4)cc3OC[C@@H]2c2ccccc2)CCOCC1 [Compound 4, (S)-(4-methyltetrahydro-2H-pyran-4-yl)(3-phenyl-8-(5-(trifluoromethyl)-1,2,4-oxadiazol-3-yl)-2,3-dihydrobenzo[f][1,4]oxazepin-4(5H)-yl)methanone] | > 6.70
6 | CC1(C(=O)N2Cc3ccc(-c4noc(C(F)(F)F)n4)cc3OC[C@@H]2c2ccccc2)COC1 [Compound 5, (3S)-4-[(3-methyloxetan-3-yl)carbonyl]-3-phenyl-8-[5-(trifluoromethyl)-1,2,4-oxadiazol-3-yl]-3,5-dihydro-2H-1,4-benzoxazepine] | > 6.70
7 | O=C(N1Cc2ccc(-c3noc(C(F)(F)F)n3)cc2OC[C@@H]1c1ccccc1)C(F)(F)F [Compound 6, (S)-2,2,2-trifluoro-1-(3-phenyl-8-(5-(trifluoromethyl)-1,2,4-oxadiazol-3-yl)-2,3-dihydrobenzo[f][1,4]oxazepin-4(5H)-yl)ethan-1-one] | 5.30 to 6.30
8 | COCC1(C(=O)N2Cc3ccc(-c4noc(C(F)(F)F)n4)cc3OC[C@@H]2c2ccccc2)COC1 [Compound 7, (3S)-4-{[3-(methoxymethyl)oxetan-3-yl]carbonyl}-3-phenyl-8-[5-(trifluoromethyl)-1,2,4-oxadiazol-3-yl]-3,5-dihydro-2H-1,4-benzoxazepine] | > 6.70
9 | CC(C)(C)OC(=O)N1Cc2ccc(-c3noc(C(F)(F)F)n3)cc2OC[C@@H]1c1ccccc1 [Compound 8, tert-butyl (S)-3-phenyl-8-(5-(trifluoromethyl)-1,2,4-oxadiazol-3-yl)-2,3-dihydrobenzo[f][1,4]oxazepine-4(5H)-carboxylate] | 5.30 to 6.30
10 | CC(C)(C)C(=O)N1Cc2c(F)cc(-c3noc(C(F)(F)F)n3)cc2OC[C@@H]1c1ccccc1 [Compound 15, (S)-1-(6-fluoro-3-phenyl-8-(5-(trifluoromethyl)-1,2,4-oxadiazol-3-yl)-2,3-dihydrobenzo[f][1,4]oxazepin-4(5H)-yl)-2,2-dimethylpropan-1-one] | 6.30 to 6.70
11 | C[C@H]1COc2cc(-c3noc(C(F)(F)F)n3)ccc2CN1C(=O)C1(C)CCOCC1 [Compound 16, (3S)-3-methyl-4-[(4-methyloxan-4-yl)carbonyl]-8-[5-(trifluoromethyl)-1,2,4-oxadiazol-3-yl]-3,5-dihydro-2H-1,4-benzoxazepine] | > 6.70
12 | C[C@H]1COc2cc(-c3noc(C(F)(F)F)n3)ccc2CN1C(=O)C(C)(C)C [Compound 17, 2,2-dimethyl-1-[(3S)-3-methyl-8-[5-(trifluoromethyl)-1,2,4-oxadiazol-3-yl]-3,5-dihydro-2H-1,4-benzoxazepin-4-yl]propan-1-one] | > 6.70
13 | C[C@H]1COc2cc(-c3noc(C(F)(F)F)n3)cc(F)c2CN1C(=O)C1(C)CCOCC1 [Compound 18, (3S)-6-fluoro-3-methyl-4-[(4-methyloxan-4-yl)carbonyl]-8-[5-(trifluoromethyl)-1,2,4-oxadiazol-3-yl]-3,5-dihydro-2H-1,4-benzoxazepine] | > 6.70
